Experimental data: patent US9975907B2, “Pyrimidinones as PI3K inhibitors” (Incyte Corporation, priority 2009, dated 2018)
pIC50: −log10 of the molar value. Structures can show the parent of a compound that is named as a salt.

Molecular target: PI3Kδ (p110δ/p85α) (Homo sapiens (Human), UniProt O00329)
Assay: PI3Kδ Scintillation Proximity Assay (Assay A3)
Format: biochemical
Settings: column b, Assay A3 (SPA), 20 μM ATP
Description: [γ-^33P]ATP (10 mCi/mL) was purchased from Perkin-Elmer (Waltham, Mass.). Lipid kinase substrate, D-myo-Phosphatidylinositol 4,5-bisphosphate (PtdIns(4,5)P2)D (+)-sn-1,2-di-O-octanoylglyceryl, 3-O-phospho linked (PIP2), CAS 204858-53-7, was purchased from Echelon Biosciences (Salt Lake City, Utah). PI3Kδ (p110δ/p85α) was purchased from Millipore (Bedford, Mass.). ATP, MgCl2, DTT, EDTA, MOPS and CHAPS were purchased from Sigma-Aldrich (St. Louis, Mo.). Wheat Germ Agglutinin (WGA) YSi SPA Scintillation Beads was purchased from GE healthcare life sciences (Piscataway, N.J.).
The kinase reaction was conducted in polystyrene 384-well matrix white plate from Thermo Fisher Scientific in a final volume of 25 μL. Inhibitors were first diluted serially in DMSO and added to the plate wells before the addition of other reaction components. The final concentration of DMSO in the assay was 0.5%. The PI3K assays were carried out at room temperature in 20 mM MOPS, pH 6.7, 10 mM MgCl2, 5 mM DTT and CHAPS 0.03%. Reactions were initiated by the addition of ATP, the final reaction mixture consisted of 20 μM PIP2, 20 μM ATP, 0.2 μCi [γ-^33P] ATP, 4 nM PI3Kδ. Reactions were incubated for 210 min and terminated by the addition of 40 μL SPA beads suspended in quench buffer: 150 mM potassium phosphate pH 8.0, 20% glycerol. 25 mM EDTA, 400 μM ATP. The final concentration of SPA beads was 1.0 mg/mL. After the plate sealing, plates were shaken overnight at room temperature and centrifuged at 1800 rpm for 10 minutes, the radioactivity of the product was determined by scintillation counting on Topcount (Perkin-Elmer). IC50 determination was performed by fitting the curve of percent control activity versus the log of the inhibitor concentration using the GraphPad Prism 3.0 software.

Chain of PI3Kδ (p110δ/p85α) (O00329 whole entry, species assumed): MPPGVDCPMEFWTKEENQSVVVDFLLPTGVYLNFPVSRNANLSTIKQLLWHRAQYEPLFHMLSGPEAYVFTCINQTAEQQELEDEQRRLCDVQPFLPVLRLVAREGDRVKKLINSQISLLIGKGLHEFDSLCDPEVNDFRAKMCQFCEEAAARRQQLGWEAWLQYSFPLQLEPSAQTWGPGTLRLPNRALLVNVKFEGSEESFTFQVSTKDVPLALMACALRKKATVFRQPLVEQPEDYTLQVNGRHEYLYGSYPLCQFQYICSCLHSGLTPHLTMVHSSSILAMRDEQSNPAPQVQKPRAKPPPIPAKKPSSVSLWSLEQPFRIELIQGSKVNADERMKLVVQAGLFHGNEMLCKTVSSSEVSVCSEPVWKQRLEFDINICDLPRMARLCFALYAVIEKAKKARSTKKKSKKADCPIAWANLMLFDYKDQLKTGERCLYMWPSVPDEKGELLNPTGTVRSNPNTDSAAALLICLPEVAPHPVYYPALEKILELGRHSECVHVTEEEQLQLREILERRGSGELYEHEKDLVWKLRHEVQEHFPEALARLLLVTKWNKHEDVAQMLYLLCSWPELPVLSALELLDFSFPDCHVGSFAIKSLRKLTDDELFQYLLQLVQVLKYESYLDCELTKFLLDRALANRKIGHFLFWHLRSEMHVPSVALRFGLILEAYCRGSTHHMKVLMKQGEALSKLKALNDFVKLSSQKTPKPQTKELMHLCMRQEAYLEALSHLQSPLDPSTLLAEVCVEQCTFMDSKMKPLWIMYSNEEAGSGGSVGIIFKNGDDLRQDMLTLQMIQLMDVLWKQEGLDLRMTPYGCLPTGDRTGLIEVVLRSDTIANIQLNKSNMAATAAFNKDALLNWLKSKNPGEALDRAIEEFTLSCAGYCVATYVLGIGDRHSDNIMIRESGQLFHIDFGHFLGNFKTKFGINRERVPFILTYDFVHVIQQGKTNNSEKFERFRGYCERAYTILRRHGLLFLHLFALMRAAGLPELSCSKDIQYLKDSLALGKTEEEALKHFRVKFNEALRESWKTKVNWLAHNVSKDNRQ
Chain of PI3Kδ (p110δ/p85α) (P27986 whole entry partner, species assumed): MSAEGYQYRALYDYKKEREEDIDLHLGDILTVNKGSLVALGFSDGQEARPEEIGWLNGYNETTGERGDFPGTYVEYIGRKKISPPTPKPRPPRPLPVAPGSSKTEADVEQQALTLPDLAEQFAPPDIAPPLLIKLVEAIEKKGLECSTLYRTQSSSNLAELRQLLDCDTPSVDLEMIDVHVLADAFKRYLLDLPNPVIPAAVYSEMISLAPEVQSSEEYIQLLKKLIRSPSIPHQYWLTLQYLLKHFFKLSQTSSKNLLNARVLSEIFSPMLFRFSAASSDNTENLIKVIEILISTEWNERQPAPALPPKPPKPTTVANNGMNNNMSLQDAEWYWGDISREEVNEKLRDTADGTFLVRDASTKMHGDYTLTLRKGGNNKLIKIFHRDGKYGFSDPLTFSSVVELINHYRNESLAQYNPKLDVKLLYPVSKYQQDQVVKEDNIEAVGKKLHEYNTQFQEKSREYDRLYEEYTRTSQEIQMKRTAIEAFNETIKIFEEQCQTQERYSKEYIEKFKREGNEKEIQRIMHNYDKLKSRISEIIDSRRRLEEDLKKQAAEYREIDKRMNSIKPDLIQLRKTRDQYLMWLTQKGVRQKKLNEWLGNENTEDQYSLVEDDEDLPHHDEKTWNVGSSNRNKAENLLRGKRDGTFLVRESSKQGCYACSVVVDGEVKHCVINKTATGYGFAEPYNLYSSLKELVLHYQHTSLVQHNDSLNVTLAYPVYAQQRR

Row | Structure (SMILES) | pIC50
1 | CC(Nc1nc(N)nc2[nH]cnc12)c1nc2ccccn2c(=O)c1-c1cc(F)cc(F)c1 (stereo not shown) [Example 80, 2-{1-[(2-Amino-9H-purin-6-yl)amino]ethyl}-3-(3,5-difluorophenyl)-4H-pyrido[1,2-a]pyrimidin-4-one trifluoroacetic acid salt] | 6.30 to 7.00
2 | CCc1cccc2nc(C(C)Nc3ncnc4[nH]cnc34)c(-c3cc(F)cc(F)c3)c(=O)n12 (stereo not shown) [Example 76, 3-(3,5-Difluorophenyl)-6-ethyl-2-[1-(9H-purin-6-ylamino)ethyl]-4H-pyrido[1,2-a]pyrimidin-4-one trifluoroacetic acid salt] | 6.30 to 7.00
3 | CC(Nc1nc(N)nc2[nH]cnc12)c1nc2sccn2c(=O)c1-c1cccc(F)c1 (stereo not shown) [Example 26, 7-{1-[(2-amino-9H-purin-6-yl)amino]ethyl}-6-(3-fluorophenyl)-5H-[1,3]thiazolo[3,2-a]pyrimidin-5-one] | 6.30 to 7.00
4 | Cc1csc2nc(C(C)Nc3ncnc4[nH]cnc34)c(-c3cccc(Cl)c3)c(=O)n12 (stereo not shown) [Example 36, 6-(3-chlorophenyl)-3-methyl-7-[1-(9H-purin-6-ylamino)ethyl]-5H-[1,3]thiazolo[3,2-a]pyrimidin-5-one trifluoroacetic acid salt] | 6.30 to 7.00
5 | Cc1cccc(-c2c(C(C)Nc3ncnc4[nH]cnc34)nc3cccc(C)n3c2=O)c1 (stereo not shown) [Example 51, 6-Methyl-3-(3-methylphenyl)-2-[1-(9H-purin-6-ylamino)ethyl]-4H-pyrido[1,2-a]pyrimidin-4-one trifluoroacetic acid salt] | 6.30 to 7.00
6 | Cc1csc2nc(C(C)Nc3ncnc4[nH]cnc34)c(-c3nccs3)c(=O)n12 (stereo not shown) [Example 20, 3-methyl-7-[1-(9H-purin-6-ylamino)ethyl]-6-(1,3-thiazol-2-yl)-5H-[1,3]thiazolo[3,2-a]pyrimidin-5-one trifluoroacetic acid salt] | > 7.30
7 | CCc1cccc2nc(C(C)Nc3ncnc4[nH]cnc34)c(-c3ccc(F)cc3)c(=O)n12 (stereo not shown) [Example 78, 6-Ethyl-3-(4-fluorophenyl)-2-[1-(9H-purin-6-ylamino)ethyl]-4H-pyrido[1,2-a]pyrimidin-4-one trifluoroacetic acid salt] | > 7.30
8 | Cc1csc2nc(C(C)Nc3ncnc4[nH]cnc34)c(-c3cc(F)ccc3F)c(=O)n12 (stereo not shown) [Example 45, 6-(2,5-difluorophenyl)-3-methyl-7-[1-(9H-purin-6-ylamino)ethyl]-5H-[1,3]thiazolo[3,2-a]pyrimidin-5-one trifluoroacetic acid salt] | > 7.30
9 | Cc1csc2nc(C(C)Nc3nc(N)nc4[nH]cnc34)c(-c3ccccc3F)c(=O)n12 (stereo not shown) [Example 33, 7-{1-[(2-amino-9H-purin-6-yl)amino]ethyl}-6-(2-fluorophenyl)-3-methyl-5H-[1,3]thiazolo[3,2-a]pyrimidin-5-one trifluoroacetic acid salt] | > 7.30
10 | Cc1cccc2nc(C(C)Nc3ncnc4[nH]cnc34)c(-c3cccc(Cl)c3)c(=O)n12 (stereo not shown) [Example 53, 3-(3-Chlorophenyl)-6-methyl-2-[1-(9H-purin-6-ylamino)ethyl]-4H-pyrido[1,2-a]pyrimidin-4-one trifluoroacetic acid salt] | 6.30 to 7.00
11 | Cc1cccc2nc(C(C)Nc3nc(N)nc4[nH]cnc34)c(-c3cccc(C#N)c3)c(=O)n12 (stereo not shown) [Example 84, 3-(2-{1-[(2-Amino-9H-purin-6-yl)amino]ethyl}-6-methyl-4-oxo-4H-pyrido[1,2-a]pyrimidin-3-yl)benzonitrile trifluoroacetic acid salt] | 7.00 to 7.30
12 | Cc1cccc2nc(C(C)Nc3ncnc4[nH]cnc34)c(-c3ccc(C#N)cc3)c(=O)n12 (stereo not shown) [Example 61, 4-{6-Methyl-4-oxo-2-[1-(9H-purin-6-ylamino)ethyl]-4H-pyrido[1,2-a]pyrimidin-3-yl}benzonitrile trifluoroacetic acid salt] | < 6.30
13 | CC(Nc1nc(N)nc2[nH]cnc12)c1nc2sccn2c(=O)c1-c1ccccc1 (stereo not shown) [Example 27, 7-{1-[(2-amino-9H-purin-6-yl)amino]ethyl}-6-phenyl-5H-[1,3]thiazolo[3,2-a]pyrimidin-5-one] | 6.30 to 7.00
14 | Cc1cccc2nc(C(C)Nc3nc(N)nc4[nH]cnc34)c(-c3ccc(C#N)cc3)c(=O)n12 (stereo not shown) [Example 62, 4-(2-{1-[(2-Amino-9H-purin-6-yl)amino]ethyl}-6-methyl-4-oxo-4H-pyrido[1,2-a]pyrimidin-3-yl)benzonitrile trifluoroacetic acid salt] | 6.30 to 7.00
15 | Cc1cccc(-c2c(C(C)Nc3nc(N)nc4[nH]cnc34)nc3cccc(C)n3c2=O)c1 (stereo not shown) [Example 52, 2-{1-[(2-Amino-9H-purin-6-yl)amino]ethyl}-6-methyl-3-(3-methylphenyl)-4H-pyrido[1,2-a]pyrimidin-4-one trifluoroacetic acid salt] | > 7.30
16 | Cc1ccccc1-c1c(C(C)Nc2ncnc3[nH]cnc23)nc2cccc(C)n2c1=O (stereo not shown) [Example 63, 6-Methyl-3-(2-methylphenyl)-2-[1-(9H-purin-6-ylamino)ethyl]-4H-pyrido[1,2-a]pyrimidin-4-one trifluoroacetic acid salt] | 6.30 to 7.00
17 | Cc1cccc2nc(C(C)Nc3nc(N)nc4[nH]cnc34)c(-c3ccc(Cl)cc3)c(=O)n12 (stereo not shown) [Example 56, 2-{1-[(2-Amino-9H-purin-6-yl)amino]ethyl}-3-(4-chlorophenyl)-6-methyl-4H-pyrido[1,2-a]pyrimidin-4-one trifluoroacetic acid salt] | < 6.30

Continued, values first:

Row | pIC50 | Structure (SMILES)
18 | 6.30 to 7.00 | Cc1csc2nc(C(C)Nc3ncnc4[nH]cnc34)c(-c3ccncc3)c(=O)n12 (stereo not shown) [Example 19, 3-methyl-7-[1-(9H-purin-6-ylamino)ethyl]-6-pyridin-4-yl-5H-[1,3]thiazolo[3,2-a]pyrimidin-5-one]
19 | < 6.30 | CC(Nc1ncnc2[nH]cnc12)c1nc2sccn2c(=O)c1-c1cccc(F)c1 (stereo not shown) [Example 28, 6-(3-fluorophenyl)-7-[1-(9H-purin-6-ylamino)ethyl]-5H-[1,3]thiazolo[3,2-a]pyrimidin-5-one]
20 | > 7.30 | COc1cccc(-c2c(C(C)Nc3ncnc4[nH]cnc34)nc3cccc(C)n3c2=O)c1 (stereo not shown) [Example 65, 3-(3-Methoxyphenyl)-6-methyl-2-[1-(9H-purin-6-ylamino)ethyl]-4H-pyrido[1,2-a]pyrimidin-4-one trifluoroacetic acid salt]
21 | > 7.30 | Cc1csc2nc(C(C)Nc3ncnc4[nH]cnc34)c(-c3ccccc3F)c(=O)n12 (stereo not shown) [Example 40, 6-(2-fluorophenyl)-3-methyl-7-[1-(9H-purin-6-ylamino)ethyl]-5H-[1,3]thiazolo[3,2-a]pyrimidin-5-one trifluoroacetic acid salt]
22 | > 7.30 | Cc1ccc(-c2c(C(C)Nc3ncnc4[nH]cnc34)nc3cccc(C)n3c2=O)cc1 (stereo not shown) [Example 64, 6-Methyl-3-(4-methylphenyl)-2-[1-(9H-purin-6-ylamino)ethyl]-4H-pyrido[1,2-a]pyrimidin-4-one trifluoroacetic acid salt]
23 | 7.00 to 7.30 | Cc1csc2nc(C(C)Nc3nc(N)nc4[nH]cnc34)c(-c3cc(F)cc(Cl)c3)c(=O)n12 (stereo not shown) [Example 35, 7-{1-[(2-amino-9H-purin-6-yl)amino]ethyl}-6-(3-chloro-5-fluorophenyl)-3-methyl-5H-[1,3]thiazolo[3,2-a]pyrimidin-5-one trifluoroacetic acid salt]
24 | < 6.30 | Cc1cccc2nc(C(C)Nc3ncnc4[nH]cnc34)c(-c3ccc(Cl)cc3)c(=O)n12 (stereo not shown) [Example 55, 3-(4-Chlorophenyl)-6-methyl-2-[1-(9H-purin-6-ylamino)ethyl]-4H-pyrido[1,2-a]pyrimidin-4-one trifluoroacetic acid salt]
25 | > 7.30 | Cc1cccc2nc(C(C)Nc3ncnc4[nH]cnc34)c(-c3ccccc3)c(=O)n12 (stereo not shown) [Example 49, 6-Methyl-3-phenyl-2-[1-(9H-purin-6-ylamino)ethyl]-4H-pyrido[1,2-a]pyrimidin-4-one trifluoroacetic acid salt]
26 | > 7.30 | Cc1cccc2nc(C(C)Nc3nc(N)nc4[nH]cnc34)c(-c3ccccc3)c(=O)n12 (stereo not shown) [Example 50, 2-{1-[(2-Amino-9H-purin-6-yl)amino]ethyl}-6-methyl-3-phenyl-4H-pyrido[1,2-a]pyrimidin-4-one trifluoroacetic acid salt]
27 | < 6.30 | CC(Nc1ncnc2[nH]cnc12)c1nc2sccn2c(=O)c1-c1ccccc1 (stereo not shown) [Example 29, 6-phenyl-7-[1-(9H-purin-6-ylamino)ethyl]-5H-[1,3]thiazolo[3,2-a]pyrimidin-5-one]
28 | < 6.30 | Cc1cc(-c2c(C(C)Nc3ncnc4[nH]cnc34)nc3cccc(C)n3c2=O)cnc1Cl (stereo not shown) [Example 81, 3-(6-Chloro-5-methylpyridin-3-yl)-6-methyl-2-[1-(9H-purin-6-ylamino)ethyl]-4H-pyrido[1,2-a]pyrimidin-4-one trifluoroacetic acid salt]
